These results are taken from patent publication US20100280047A1, “SALTS OF ACTIVE INGREDIENTS WITH POLYMERIC COUNTER-IONS” (BASF SE, priority 2007, published 2010).

Each structure is given as a SMILES string. Some results are limits rather than exact numbers.

Data set [1] in a line: Saturation solubility of haloperidol in aqueous polymer solutions (HPLC of filtrate). The class given is physicochemical. As to the method:
1.0 g of haloperidol (free base) was added to 100.0 ml of aqueous polymer solution and stirred for 72 h. […] The undissolved amount of haloperidol was filtered off. The content of haloperidol in the filtrate was determined by HPLC.
For comparison, the saturation solubility of haloperidol was determined in demineralized water, as well as in hydrochloric acid. In the latter case, the corresponding haloperidol hydrochloride is formed.

Data set [2] is described as follows: Saturation solubility of loperamide in aqueous polymer solutions (HPLC of filtrate). The format is physicochemical. As to the method:
1.0 g of loperamide (free base) was added to 100.0 ml of aqueous polymer solution and stirred for 72 h. […] The undissolved amount of loperamide was filtered off. The content of loperamide in the filtrate was determined by HPLC.
For comparison, the saturation solubility of loperamide was determined in demineralized water, as well as in hydrochloric acid. In the case of the latter, the corresponding loperamide hydrochloride is formed.

For the compound `O=C(CCCN1CCC(O)(c2ccc(Cl)cc2)CC1)c1ccc(F)cc1` [haloperidol], the “Concentration of dissolved haloperidol” value in data set [1] (10% by wt. polymer D in water, stirred 72 h, pH of filtered solution 3.2) was 5200 µg/mL; in data set [1] (20% by wt. polymer A in water, stirred 72 h, pH of filtered solution 3.0) it was 10300 µg/mL; in data set [1] (20% by wt. polymer C in water, stirred 72 h, pH of filtered solution 3.3) it was 7700 µg/mL; in data set [1] (20% by wt. polymer D in water, stirred 72 h, pH of filtered solution 3.0), 15100 µg/mL; in data set [1] (20% solution of polymer A plus NaOH to pH 10, pH of filtered solution 10.1) it was less than 74 µg/mL; in data set [1] (demineralized water, 0% polymer, stirred 72 h, pH of filtered solution 7.5) it was less than 17.8 µg/mL. The “Concentration of dissolved haloperidol” value in data set [1] (hydrochloric acid 10%, no polymer (haloperidol hydrochloride is formed)) is less than 16 µg/mL.
As for `CN(C)C(=O)C(CCN1CCC(O)(c2ccc(Cl)cc2)CC1)(c1ccccc1)c1ccccc1` [loperamide], the “Concentration of dissolved loperamide” value is 6200 µg/mL in data set [2] (10% by wt. polymer A in water, stirred 72 h, pH of filtered solution 2.5); 3900 µg/mL in data set [2] (10% by wt. polymer B in water, stirred 72 h, pH of filtered solution 2.0); 7600 µg/mL in data set [2] (20% by wt. polymer A in water, stirred 72 h); 5900 µg/mL in data set [2] (20% by wt. polymer D in water, stirred 72 h, pH of filtered solution 1.9); less than 17 µg/mL in data set [2] (demineralized water, 0% polymer, stirred 72 h); less than 14.9 µg/mL in data set [2] (hydrochloric acid 10%, no polymer (loperamide hydrochloride is formed)).
